This is an account of results in ChEMBL document CHEMBL1201862, “PubChem BioAssay data set” (2004).

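Test compounds were applied to cells in 96-well plates for 48 hours at 5 doses. Here, GI50 denotes the concentration required for 50% inhibition of growth.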 Active and inactive are the calls of the source. No stated cut-off is given here; in the data, active = GI50 up to about 1.1 µM and inactive = higher.

Among the test systems are NCI-H522; NCI-H23; MDA-N; NCI/ADR-RES; Hs-578T; SR; SW-620; OVCAR-5; M14; EKVX; MDA-MB-231; SF-268; SF-295; HCT-116; SN12C; 786-0; HOP-92; KM12; A549; HCT-15.
Holding throughout (assay): NCI anticancer screen, dose series, 48 h

Regarding `c1ccc(/C(=N/Nc2ccccn2)c2cccnn2)cc1`, the GI50 in the test on NCI-H522 is 0.441 µM (active); in the test with NCI-H23 it was 2.91 µM (inactive); in the test on MDA-N, 7.57 µM (inactive); in the test on NCI/ADR-RES, 2.17 µM (inactive); with Hs-578T, 11.8 µM (inactive); in the test with SR, 0.522 µM (active). The GI50 is 3.44 µM (inactive) in the test on SW-620; 7.73 µM (inactive) with OVCAR-5; 1.45 µM (inactive) with M14; 1.74 µM (inactive) in the test on EKVX; 2.57 µM (inactive) in the test with MDA-MB-231; 0.853 µM (active) in the test on SF-268. Moreover, the GI50 is 3.11 µM (inactive) in the test on SF-295; 2.28 µM (inactive) with HCT-116; 2.15 µM (inactive) with SN12C; 1.38 µM (inactive) in the test with 786-0; 5.48 µM (inactive) in the test on HOP-92; 2.72 µM (inactive) with KM12. Moreover, the GI50 in the test on A549 was 2.43 µM (inactive); with HCT-15, 0.824 µM.
Take `O=C1C=CC(=O)c2c1ccc1c3ccccc3n(Cc3ccccc3)c21`: the GI50 in the test with NCI-H522 was 14.3 µM (inactive); with NCI-H23, 19.5 µM (inactive); with MDA-N, 23 µM (inactive); in the test with NCI/ADR-RES, 42.2 µM (inactive); in the test with Hs-578T, 42.2 µM (inactive); in the test on SR, 10.9 µM (inactive). The GI50 in the test on SW-620 was 7.21 µM (inactive); in the test with OVCAR-5, 20.9 µM (inactive); in the test with M14, 18 µM (inactive); in the test with EKVX, > 64.9 µM (inactive); in the test with MDA-MB-231, 20.3 µM (inactive); in the test on SF-268 it was 32.1 µM (inactive). The GI50 was > 100 µM (inactive) with SF-295; 19.1 µM (inactive) with HCT-116; 21.6 µM (inactive) in the test on SN12C; 16.2 µM (inactive) with 786-0; > 10 µM (inactive) with HOP-92; > 57.5 µM (inactive) in the test on KM12. Also, the GI50 with A549 was > 100 µM (inactive); in the test with HCT-15, 21.9 µM.
Take `COc1cc2c(cc1O)NC(=S)[C@@H]1CCCN1C2=O`: the GI50 with NCI-H522 was > 100 µM (inactive); with NCI-H23 it was > 100 µM (inactive); with MDA-N it was > 100 µM (inactive); in the test with NCI/ADR-RES it was > 100 µM (inactive); in the test with Hs-578T, > 100 µM (inactive); with SR it was 50.1 µM (inactive). Moreover, the GI50 in the test with SW-620, in the test with OVCAR-5, with M14, with EKVX, with MDA-MB-231 and in the test with SF-268 was > 100 µM (inactive) each time. In addition, the GI50 with SF-295 is 97.1 µM (inactive); in the test with HCT-116, > 100 µM (inactive); in the test on SN12C, > 100 µM (inactive); in the test with 786-0, > 100 µM (inactive); in the test on HOP-92 it was > 100 µM (inactive); in the test with KM12 it was > 100 µM (inactive). The results for the GI50 with A549 and in the test on HCT-15 were > 100 µM (inactive) and over 100 µM, respectively.
`NC(=O)CC(N)c1nnn[nH]1` (stereo not given): the GI50 in the test on NCI-H522, with NCI-H23, in the test with MDA-N, in the test with NCI/ADR-RES, in the test with Hs-578T and in the test with SR was > 100 µM (inactive) each time. The GI50 with SW-620, in the test on OVCAR-5, in the test on M14, in the test with EKVX, with MDA-MB-231 and in the test on SF-268 was > 100 µM (inactive) each time. Further, the GI50 in the test on SF-295, in the test on HCT-116, with SN12C, in the test on 786-0, in the test on HOP-92 and in the test with KM12 was > 100 µM (inactive) throughout. The results for the GI50 in the test on A549 and in the test with HCT-15 were > 100 µM (inactive) and over 100 µM, respectively.
On to `O=C(N/N=C\c1cccc2ccccc12)Nc1ccc([N+](=O)[O-])cc1`, for which the GI50 with NCI-H522 is 5.66 µM (inactive); with NCI-H23 it was 8.89 µM (inactive); with MDA-N, 19.1 µM (inactive); with NCI/ADR-RES, 13.9 µM (inactive); with Hs-578T it was 25.4 µM (inactive); in the test with SR it was > 27.6 µM (inactive). Further, the GI50 in the test with SW-620 is 29.6 µM (inactive); in the test on OVCAR-5 it was 19.7 µM (inactive); in the test on M14, 28.1 µM (inactive); in the test with EKVX, > 39.4 µM (inactive); in the test with MDA-MB-231 it was 30.7 µM (inactive); in the test with SF-268, 19.5 µM (inactive). The GI50 in the test on SF-295 was 13.7 µM (inactive); with HCT-116, 6.28 µM (inactive); with SN12C, 18.5 µM (inactive); in the test with 786-0, 3.54 µM (inactive); with HOP-92, 6.67 µM (inactive); with KM12, 10.9 µM (inactive). Also, the figures for the GI50 with A549 and with HCT-15 were 9.71 µM (inactive) and 13.9 µM, respectively.
Turning to `O=C1CCC2(O)C3Cc4ccc(Oc5nnnn5-c5ccccc5)c5c4C2(CCN3CC2CC2)C1O5` (stereo not given), the GI50 with NCI-H522 was 23.3 µM (inactive); in the test on NCI-H23 it was > 100 µM (inactive); in the test on MDA-N it was 22 µM (inactive); in the test on NCI/ADR-RES, 86.7 µM (inactive); in the test with Hs-578T it was 28.9 µM (inactive); in the test on SR, 15.6 µM (inactive). Also, the GI50 in the test with SW-620 is 33.7 µM (inactive); with OVCAR-5 it was > 100 µM (inactive); in the test with M14 it was 18 µM (inactive); with EKVX it was > 100 µM (inactive); in the test with MDA-MB-231 it was 58.6 µM (inactive); with SF-268, 34.7 µM (inactive). For the same molecule, the GI50 is 70 µM (inactive) in the test on SF-295; 43.6 µM (inactive) with HCT-116; > 100 µM (inactive) in the test on SN12C; 20 µM (inactive) with 786-0; 50.2 µM (inactive) in the test with HOP-92; > 100 µM (inactive) in the test on KM12. The GI50 in the test on A549 is > 100 µM (inactive); in the test on HCT-15 it was 35.5 µM.
Regarding `CN(C)c1ccc(/C=c2\c3ccccc3n3c2cc(-c2ccccc2)[n+]3C)cc1`, the GI50 is 0.0193 µM (active) with NCI-H522; 0.0582 µM (active) in the test with NCI-H23; 0.144 µM (active) in the test with MDA-N; 4.45 µM (inactive) in the test on NCI/ADR-RES; 0.0335 µM (active) with Hs-578T; 0.16 µM (active) in the test on SR. The GI50 in the test on SW-620 is 0.119 µM (active); in the test with OVCAR-5 it was 0.67 µM (active); in the test with M14, 0.157 µM (active); in the test with EKVX, 0.32 µM (active); in the test with MDA-MB-231, 0.222 µM (active); in the test with SF-268, 0.261 µM (active). The GI50 in the test on SF-295 is 0.213 µM (active); with HCT-116, 0.0853 µM (active); in the test on SN12C, 0.149 µM (active); with 786-0, 0.142 µM (active); in the test on HOP-92, 0.284 µM (active); in the test on KM12, 0.185 µM (active). The GI50 in the test on A549 was 0.201 µM (active); with HCT-15, 1.2 µM.
For `COc1c(-c2nc3ccc(N4CCN(C)CC4)nc3[nH]2)cc(OC)c2[nH]c(CO)nc12`, the GI50 is 52.4 µM (inactive) with NCI-H522; > 100 µM (inactive) in the test with NCI-H23; > 100 µM (inactive) with MDA-N; > 100 µM (inactive) in the test with NCI/ADR-RES; > 100 µM (inactive) with Hs-578T; > 100 µM (inactive) with SR. Also, the GI50 in the test on SW-620 was > 100 µM (inactive); with OVCAR-5, > 100 µM (inactive); with M14, > 100 µM (inactive); in the test with EKVX, > 100 µM (inactive); with MDA-MB-231, 44.1 µM (inactive); with SF-268, 92.3 µM (inactive). Further, the GI50 in the test on SF-295 is > 100 µM (inactive); in the test with HCT-116, 54.7 µM (inactive); in the test on SN12C it was 53 µM (inactive); with 786-0, 69.3 µM (inactive); in the test with HOP-92, > 100 µM (inactive); with KM12, 93.5 µM (inactive). Further, the figures for the GI50 with A549 and with HCT-15 were > 100 µM (inactive) and over 100 µM, respectively.
On to `CN(CCNC(=O)c1cc(-c2ccccc2)nc2ccccc12)CCNC(=O)c1cc(-c2ccccc2)nc2ccccc12`, for which the GI50 with NCI-H522 was 14.3 µM (inactive); in the test with NCI-H23, > 45.4 µM (inactive); in the test with MDA-N, 11.1 µM (inactive); in the test with NCI/ADR-RES, > 100 µM (inactive); with Hs-578T, 6.18 µM (inactive); in the test on SR, 2.98 µM (inactive). For the same molecule, the GI50 with SW-620 was 6.12 µM (inactive); with OVCAR-5, 8.55 µM (inactive); in the test with M14, 2.17 µM (inactive); in the test with EKVX, 15.9 µM (inactive); in the test on MDA-MB-231, > 50.4 µM (inactive); in the test on SF-268 it was 8.51 µM (inactive). Also, the GI50 in the test on SF-295 was 13.2 µM (inactive); in the test with HCT-116, 8.05 µM (inactive); in the test on SN12C it was > 100 µM (inactive); in the test on 786-0, 5.96 µM (inactive); in the test with HOP-92 it was 2.61 µM (inactive); in the test with KM12 it was 4.46 µM (inactive). Moreover, the GI50 was > 100 µM (inactive) in the test with A549 and over 80.5 µM with HCT-15.
In the case of `Cc1ccc(Nc2nc(=O)[nH]c(=O)[nH]2)cc1N=[N+]=[N-]`, the GI50 in the test on NCI-H522, in the test with NCI-H23, with MDA-N, in the test on NCI/ADR-RES, with Hs-578T and with SR was > 100 µM (inactive) in each case. The GI50 in the test with SW-620, in the test with OVCAR-5, in the test on M14, in the test on EKVX, in the test with MDA-MB-231 and with SF-268 was > 100 µM (inactive) each time. In addition, the GI50 with SF-295, with HCT-116, with SN12C, with 786-0, in the test with HOP-92 and in the test with KM12 was > 100 µM (inactive) throughout. Also, the GI50 in the test with A549 is > 100 µM (inactive); with HCT-15 it was over 100 µM.
